Measured values: ChEMBL document CHEMBL1795338, “Identification of pentacyclic triterpenes derivatives as potent inhibitors against glycogen phosphorylase based on 3D-QSAR studies” (Eur J Med Chem, 2011)

Molecular target: T1, Glycogen phosphorylase, muscle form (Oryctolagus cuniculus, UniProt P00489)
T1 sequence (P00489 whole entry): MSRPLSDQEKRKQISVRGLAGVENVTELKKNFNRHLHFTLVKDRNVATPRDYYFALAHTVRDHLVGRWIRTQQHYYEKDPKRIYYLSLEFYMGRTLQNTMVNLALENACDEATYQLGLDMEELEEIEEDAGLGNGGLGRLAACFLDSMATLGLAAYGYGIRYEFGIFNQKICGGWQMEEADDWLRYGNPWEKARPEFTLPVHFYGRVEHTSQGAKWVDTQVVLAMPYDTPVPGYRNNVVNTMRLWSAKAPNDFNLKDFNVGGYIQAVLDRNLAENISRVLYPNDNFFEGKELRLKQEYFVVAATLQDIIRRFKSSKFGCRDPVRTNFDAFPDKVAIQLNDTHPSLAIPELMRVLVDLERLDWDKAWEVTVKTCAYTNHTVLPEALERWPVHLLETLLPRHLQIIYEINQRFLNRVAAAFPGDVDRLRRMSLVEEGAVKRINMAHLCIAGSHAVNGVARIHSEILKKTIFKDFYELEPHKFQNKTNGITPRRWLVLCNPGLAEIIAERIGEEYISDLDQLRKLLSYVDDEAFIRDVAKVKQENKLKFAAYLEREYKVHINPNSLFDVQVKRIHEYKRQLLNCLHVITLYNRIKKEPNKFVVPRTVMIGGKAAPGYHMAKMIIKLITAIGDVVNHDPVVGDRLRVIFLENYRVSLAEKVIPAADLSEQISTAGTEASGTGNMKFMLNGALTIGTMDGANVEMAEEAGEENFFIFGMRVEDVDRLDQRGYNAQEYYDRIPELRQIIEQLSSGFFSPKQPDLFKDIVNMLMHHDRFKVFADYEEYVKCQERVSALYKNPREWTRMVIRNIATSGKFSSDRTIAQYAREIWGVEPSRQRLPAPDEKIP
Assay: Inhibition of rabbit muscle glycogen phosphorylase A assessed as release of phosphate from glucose-1-phosphate after 25 mins by microplate reader based method

Row | SMILES | IC50 [µM]
1 | CC(=O)NCCNCCNC(=O)[C@]12CCC(C)(C)C[C@H]1C1=CC[C@@H]3[C@@]4(C)CC[C@H](OC(C)=O)C(C)(C)[C@@H]4CC[C@@]3(C)[C@]1(C)CC2 | 3.25
2 | CC(=O)O[C@H]1CC[C@]2(C)[C@H]3CC=C4[C@@H]5[C@@H](C)[C@H](C)CC[C@]5(C(=O)O)CC[C@@]4(C)[C@]3(C)CC[C@H]2C1(C)C [O-ACETYLURSOLIC ACID] | 131
3 | CC1(C)CC[C@]2(C(=O)O)CC[C@]3(C)C(=CC[C@@H]4[C@@]5(C)C[C@@H](O)CC(C)(C)[C@@H]5CC[C@]43C)[C@@H]2C1 | 16.1
4 | CC1(C)CC[C@]2(C(=O)O)CC[C@]3(C)C(=CC[C@@H]4[C@@]5(C)CC[C@H](OC(=O)CCC(=O)O)C(C)(C)[C@@H]5CC[C@]43C)[C@@H]2C1 [OLEANOLIC ACID 3-O-SUCCINATE] | 34.3
5 | CCCC(=O)O[C@@H]1C[C@]2(C)[C@H]3CC=C4[C@@H]5[C@@H](C)[C@H](C)CC[C@]5(C(=O)O)CC[C@@]4(C)[C@]3(C)CC[C@H]2C(C)(C)[C@H]1OC(=O)CCC | 78.7
6 | CCOC(=O)[C@]12CC[C@@H](C)[C@H](C)[C@H]1C1=CC[C@@H]3[C@@]4(C)C[C@@H](O)[C@H](O)C(C)(C)[C@@H]4CC[C@@]3(C)[C@]1(C)CC2 | 46.7
7 | C[C@H]1[C@H](C)CC[C@]2(C(=O)OCc3ccccc3)CC[C@]3(C)C(=CC[C@@H]4[C@@]5(C)C[C@H](O)[C@H](O)C(C)(C)[C@@H]5CC[C@]43C)[C@H]12 | 108
8 | CC(=O)O[C@@H]1C[C@]2(C)[C@H]3CC=C4[C@@H]5[C@@H](C)[C@H](C)CC[C@]5(C(=O)O)CC[C@@]4(C)[C@]3(C)CC[C@H]2C(C)(C)[C@H]1O | 37.7
9 | C[C@H]1[C@H](C)CC[C@]2(C(=O)OCCN3CCCCC3)CC[C@]3(C)C(=CC[C@@H]4[C@@]5(C)C[C@@H](O)[C@H](O)[C@@](C)(CO)[C@@H]5CC[C@]43C)[C@H]12 | 132
10 | CC1(C)CC[C@]2(C(=O)O)CC[C@]3(C)C(=CC[C@@H]4[C@@]5(C)CCC(=O)[C@@](C)(CO)[C@@H]5CC[C@]43C)[C@@H]2C1 | 53.5
11 | CCCCCC(=O)O[C@@H]1C[C@]2(C)[C@H]3CC=C4[C@@H]5[C@@H](C)[C@H](C)CC[C@]5(C(=O)O)CC[C@@]4(C)[C@]3(C)CC[C@H]2C(C)(C)[C@H]1O | 3.26
12 | COc1ccc(/C=C\C(=O)O[C@H]2CC[C@]3(C)[C@H]4CC=C5[C@@H]6CC(C)(C)CC[C@]6(C(=O)O)CC[C@@]5(C)[C@]4(C)CC[C@H]3C2(C)C)cc1 | 16.9
13 | C[C@H]1[C@H](C)CC[C@]2(C(=O)OCCNC3CCCCC3)CC[C@]3(C)C(=CC[C@@H]4[C@@]5(C)CC[C@H](O)C(C)(C)[C@@H]5CC[C@]43C)[C@H]12 | 25.6
14 | C[C@H]1[C@H](C)CC[C@]2(C(=O)OCCN3CCOCC3)CC[C@]3(C)C(=CC[C@@H]4[C@@]5(C)C[C@@H](O)[C@H](O)[C@@](C)(CO)[C@@H]5CC[C@]43C)[C@H]12 | 173
15 | CC1(C)CC[C@]2(C(=O)O)CC[C@]3(C)C(=CC[C@@H]4[C@@]5(C)Cc6cnn(-c7cc(F)cc(F)c7)c6C(C)(C)[C@@H]5CC[C@]43C)[C@@H]2C1 | 46.9
16 | COC(=O)[C@H](Cc1ccccc1)NC(=O)[C@]12CC[C@@H](C)[C@H](C)[C@H]1C1=CC[C@@H]3[C@@]4(C)C[C@@H](OC(C)=O)[C@H](OC(C)=O)C(C)(C)[C@@H]4CC[C@@]3(C)[C@]1(C)CC2 | 23.9
17 | C[C@H]1[C@H](C)CC[C@]2(C(=O)O)CC[C@]3(C)C(=CC[C@@H]4[C@@]5(C)CC[C@H](OC(=O)CCC(=O)O)C(C)(C)[C@@H]5CC[C@]43C)[C@H]12 | 27.6
18 | C[C@H]1[C@H](C)CC[C@]2(C(=O)OCc3ccccc3)CC[C@]3(C)C(=CC[C@@H]4[C@@]5(C)C[C@@H](O)[C@H](O)C(C)(C)[C@@H]5CC[C@]43C)[C@H]12 | 41.2
19 | COC(=O)[C@H](Cc1ccc(OCc2cn(CC(=O)O[C@H]3CC[C@]4(C)[C@H]5CC=C6[C@@H]7CC(C)(C)CC[C@]7(C(=O)OCc7ccccc7)CC[C@@]6(C)[C@]5(C)CC[C@H]4C3(C)C)nn2)cc1)NC(=O)OC(C)(C)C | 17.5
20 | COS(=O)(=O)[C@@H]1C[C@]2(C)[C@H]3CC=C4[C@@H]5[C@@H](C)[C@H](C)CC[C@]5(C(=O)OCc5ccccc5)CC[C@@]4(C)[C@]3(C)CC[C@H]2C(C)(C)[C@H]1O | 43.4
21 | CC1(C)CC[C@]2(C(=O)O)CC[C@]3(C)C(=CC[C@@H]4[C@@]5(C)Cc6cn[nH]c6C(C)(C)[C@@H]5CC[C@]43C)[C@@H]2C1 | 7.8
22 | COCc1cn(CCCCCCn2cc(CO[C@H]3CC[C@]4(C)[C@H]5CC=C6[C@@H]7CC(C)(C)CC[C@]7(C(=O)O)CC[C@@]6(C)[C@]5(C)CC[C@H]4C3(C)C)nn2)nn1 | 2.59
23 | C[C@H]1[C@H](C)CC[C@]2(C(=O)OCCBr)CC[C@]3(C)C(=CC[C@@H]4[C@@]5(C)CC[C@H](O)C(C)(C)[C@@H]5CC[C@]43C)[C@H]12 | 10.2
24 | C[C@H]1[C@H](C)CC[C@]2(C(=O)OCC(=O)O)CC[C@]3(C)C(=CC[C@@H]4[C@@]5(C)CC[C@H](O)C(C)(C)[C@@H]5CC[C@]43C)[C@H]12 | 188
25 | CC1(C)CC[C@]2(C(=O)OCC(=O)O)CC[C@]3(C)C(=CC[C@@H]4[C@@]5(C)CC[C@H](O)C(C)(C)[C@@H]5CC[C@]43C)[C@@H]2C1 | 62.6
26 | CCCOC(=O)[C@]12CC[C@@H](C)[C@H](C)[C@H]1C1=CC[C@@H]3[C@@]4(C)C[C@@H](O)[C@H](O)C(C)(C)[C@@H]4CC[C@@]3(C)[C@]1(C)CC2 | 82.5
27 | C[C@H]1[C@H](C)CC[C@]2(C(=O)O)CC[C@]3(C)C(=CC[C@@H]4[C@@]5(C)Cc6cn[nH]c6C(C)(C)[C@@H]5CC[C@]43C)[C@H]12 | 40.4

Continued, values first:

Row | IC50 [µM] | SMILES
28 | 35.1 | CC1(C)CC[C@]2(C(=O)O)CC[C@]3(C)C(=CC[C@@H]4[C@@]5(C)Cc6cnn(-c7ccccc7)c6C(C)(C)[C@@H]5CC[C@]43C)[C@@H]2C1
29 | 76.7 | CCOC(=O)CCCOC(=O)[C@]12CCC(C)(C)C[C@H]1C1=CC[C@@H]3[C@@]4(C)CC[C@H](O)C(C)(C)[C@@H]4CC[C@@]3(C)[C@]1(C)CC2
30 | 82.9 | C[C@H]1[C@H](C)CC[C@]2(C(=O)OCc3ccccc3)CC[C@]3(C)C(=CC[C@@H]4[C@@]5(C)C/C(=N\O)C(=O)C(C)(C)[C@@H]5CC[C@]43C)[C@H]12
31 | 242 | CC1(C)CC[C@]2(C(=O)O)CC[C@]3(C)C(=CC[C@@H]4[C@@]5(C)Cc6cnn(-c7ccc(Cl)cc7)c6C(C)(C)[C@@H]5CC[C@]43C)[C@@H]2C1
32 | 25.1 | CC1(C)CC[C@]2(C(=O)O)CC[C@]3(C)C(=CC[C@@H]4[C@@]5(C)Cc6nccnc6C(C)(C)[C@@H]5CC[C@]43C)[C@@H]2C1
33 | 24.7 | CC1(C)CC[C@]2(COC(=O)CCC(=O)O)CC[C@]3(C)C(=CC[C@@H]4[C@@]5(C)Cc6c[nH]nc6C(C)(C)[C@@H]5CC[C@]43C)[C@@H]2C1
34 | 179 | CC1(C)CC[C@]2(C(=O)OCc3ccccc3)CC[C@]3(C)C(=CC[C@@H]4[C@@]5(C)Cc6cn(Cc7ccc(Cl)cc7Cl)nc6C(C)(C)[C@@H]5CC[C@]43C)[C@@H]2C1
35 | 2.13 | CC1(C)CC[C@]2(C(=O)OCc3ccccc3)CC[C@]3(C)C(=CC[C@@H]4[C@@]5(C)CC[C@H](OC(=O)c6ccc(N)cc6)C(C)(C)[C@@H]5CC[C@]43C)[C@@H]2C1
36 | 106 | Cc1ccc(-n2ncc3c2C(C)(C)[C@@H]2CC[C@]4(C)[C@H](CC=C5[C@@H]6CC(C)(C)CC[C@]6(C(=O)OCc6ccccc6)CC[C@]54C)[C@@]2(C)C3)cc1
37 | 20.5 | CC1(C)CC[C@]2(C(=O)OCc3ccccc3)CC[C@]3(C)C(=CC[C@@H]4[C@@]5(C)Cc6cn(C7CC7)nc6C(C)(C)[C@@H]5CC[C@]43C)[C@@H]2C1
38 | 111 | CCOC(=O)Cn1cc2c(n1)C(C)(C)[C@@H]1CC[C@]3(C)[C@H](CC=C4[C@@H]5CC(C)(C)CC[C@]5(C(=O)OCc5ccccc5)CC[C@]43C)[C@@]1(C)C2
39 | 7.76 | CCCCCCCCCCCC(=O)OCc1cn(CC(=O)O[C@H]2CC[C@]3(C)[C@H]4CC=C5[C@@H]6CC(C)(C)CC[C@]6(C(=O)OCc6ccccc6)CC[C@@]5(C)[C@]4(C)CC[C@H]3C2(C)C)nn1
40 | 49.3 | CC1(C)CC[C@]2(C(=O)O)CC[C@]3(C)C(=CC[C@@H]4[C@@]5(C)Cc6cn(S(C)(=O)=O)nc6C(C)(C)[C@@H]5CC[C@]43C)[C@@H]2C1
41 | 14 | CC1(C)CC[C@]2(C(=O)O)CC[C@]3(C)C(=CC[C@@H]4[C@@]5(C)Cc6nc7ccccc7nc6C(C)(C)[C@@H]5CC[C@]43C)[C@@H]2C1
42 | 47.1 | CC1(C)CC[C@]2(C(=O)OCc3ccccc3)CC[C@]3(C)C(=CC[C@@H]4[C@@]5(C)Cc6cn(CC(=O)O)nc6C(C)(C)[C@@H]5CC[C@]43C)[C@@H]2C1
43 | 61.3 | CC1(C)CC[C@]2(C(=O)OCc3ccccc3)CC[C@]3(C)C(=CC[C@@H]4[C@@]5(C)C/C(=N\OCc6ccccc6)C(=O)C(C)(C)[C@@H]5CC[C@]43C)[C@@H]2C1
